Assay results taken from US10143198B2, “Use of propyl propane thiosulfinate and propyl propane thiosulfonate for the prevention and reduction of parasites in aquatic animals” (Investfood, LLC, priority 2013, dated 2018).

Tests used:
Icthyobodo necator = test: oral treatment of Ichthyobodosis in rainbow trout, PTSO administered into feed; assay type: in vivo; settings: for % infestation High / % infestation Low / % infestation minimal / % infestation Moderate / % infestation zero: 24 hours after end of assay; for % infestation High: High = more than 50 individuals per microscope field; for % infestation Low: Low = more than 1 individual, less than 10 per field; for % infestation minimal: Minimal = only 1 individual detected; for % infestation Moderate: Moderate = 10 to 50 per field; for % infestation zero: Zero = not detected
Protocol: In this example, a study of oral treatments of Ichthyobodosis in rainbow trout with different concentrations of Propyl propane thiosulphonate (PTSO) administered into feed was conducted.
Rainbow trout Oncornynchus mykiss were obtained from a local fish farm and acclimatized for at least 10 days before assay in 100 l tanks with aeration in closed systems of water (15±2° C., pH 7-7.5). The natural light-dark cycle was simulated (12 h light: 12 h dark). Fish were fed twice per day with a commercial feed (EFICO, Biomar, Spain). Parasite-free fish were experimentally infested by holding the parasite-free fish 25 days in a 100 l tank that also contained fish showing high-intensity infestation (20 uninfected fish to 10 infected fish).
Fish were anaesthetized by immersion in bath with 100 ppm of Tricaine methanesulfonate until respiration became weak. A mucus sample was then taken by gently scraping the body surface after examination of a sample area of 24×32 mm. The sample was mixed with 30 μl of distilled water on a slide, cover-slipped and examined to optic microscopy (400×).
Each treatment was assayed in 20 infected fish maintained in 100 L tanks with aeration in closed systems of water. The fish received feed containing three different treatments. The first group received a diet with 100 ppm of Propyl propane thiosulphonate (PTSO), the second received a diet supplemented with 300 ppm of PTSO, and the third received a diet with 300 ppm of metronidazole. All treatments were applied during a 10 day period. In all cases, feed was supplied at 2% of total body weight per day. Simultaneously, a positive control assay (also on 20 infected fish treated identically, but without any PTSO) and negative control assay (with 20 uninfected animals) were performed. Tanks conditions were identical to those during the acclimatization period.
Throughout the assay period the fish were monitored regularly to ensure that the fish were eating the food, and to check for signs of toxicity.
Of note, infestation intensity was based on a 5-point scale, as follows: Zero equals Ichthyobodo necator not being detected in the sample; Minimal equals only 1 individual of I. necator being detected in the sample; Low equals more than 1 individual of parasite being detected in the sample, the average number per microscope field being less than 10; Moderate equals an average number of individuals per microscope field of 10 to 50; High equals an average number of individuals per microscope field of more than 50.

[1] = system: L3 larvae of Anisakis type I; settings: 200, 300 and 500 ppm, in vitro, 36° C.
From the text: (§1) The objective of example 3 was to examine the activity of propyl propane thiosulphonate (PTSO) and propyl propane thiosulfinate (PTS) against L3 larvae of type I Anisakis and Hysterotylacium aduncum to explore the possible use of these compounds for prophylaxis treatments.
(§2) L3 of Anisakis type I and Hysterotylacium aduncum were collected by dissecting the fish Micromesistius poutassou (blue whiting) and Trachurus trachurus (mackerel) fished in the Cantabric sea, and selecting only larvae with a length greater than (>) 2.0 cm in the case of Anisakis, and greater than 0.8 cm for Hysterotylacium.
(§3) Larvae were axenised in antibiotic solution (Iglesias et al., 1997), introduced into polystyrene plate wells with 2 ml of sterile solution of 0.9% NaCl and the different concentrations of PTS alone, PTSO alone, and both PTS and PTSO (75, 200, 300 and 500 ppm) and then incubated at 36° C. in a 5% CO2 atmosphere. As controls, larvae were assayed without test compound under identical experimental conditions, and using only the solvent DMSO 1% (Dimethyl sulfoxide). Larvae were examined under stereoscopic microscope at 4, 8, 24, and 48 hours to test the biocidal effect of the compounds. Larvae with no mobility at all were considered dead. Each dilution was tested three times on larvae from fish captured on different days.

[2] = system: L3 larvae of Hysterotylacium aduncum; settings: 75 ppm, in vitro, 36° C.
From the text: as §1, §2, §3

Row | SMILES | % infestation High (Icthyobodo necator; 300 ppm in feed for 10 days) [%] | % infestation Low (Icthyobodo necator; 300 ppm in feed for 10 days) [%] | % infestation minimal (Icthyobodo necator; 300 ppm in feed for 10 days) [%] | % infestation Moderate (Icthyobodo necator; 300 ppm in feed for 10 days) [%] | % infestation zero (Icthyobodo necator; 300 ppm in feed for 10 days) [%] | anti-parasitic activity (mortality) [1] | anti-parasitic activity (mortality) [2] | % infestation High (Icthyobodo necator; 100 ppm in feed for 10 days) [%] | % infestation Low (Icthyobodo necator; 100 ppm in feed for 10 days) [%] | % infestation minimal (Icthyobodo necator; 100 ppm in feed for 10 days) [%] | % infestation Moderate (Icthyobodo necator; 100 ppm in feed for 10 days) [%] | % infestation zero (Icthyobodo necator; 100 ppm in feed for 10 days) [%] | antiparasitic activity, infestation intensity (Icthyobodo necator; oral in feed)
1 | Cc1ncc([N+](=O)[O-])n1CCO [Metronidazole, metronidazole, reference compound] | 15 | 7 | 12 | 20 | 46 |  |  |  |  |  |  |  | 
2 | CCCS[S+]([O-])CCC (centres unmarked) [PTS, propyl propane thiosulfinate] |  |  |  |  |  | significant anti-parasitic activity | significant anti-parasitic activity |  |  |  |  |  | 
3 | CCCSS(=O)(=O)CCC [PTSO, propyl propane thiosulfonate] | 25 | 8 | 5 | 7 | 55 | significant anti-parasitic activity | significant anti-parasitic activity | 35 | 18 | 12 | 30 | 5 | significant reduction of infestation intensity
